According to patent US5278171A, “Azadecalin amides and thioamides as inhibitors of cholesterol biosynthesis” (Merrell Dow Pharmaceuticals Inc., priority 1991, dated 1994):

What was measured:
[1] = test system: Oxidosqualene Cyclase in HepG2 Cells; test: Inhibition of Oxidosqualene Cyclase in HepG2 Cells (IC50 for the inhibition of [14C]cholesterol biosynthesis); assay type: cell-based; settings: Homo sapiens, read-out: IC50 HepG2 Cell
Procedure: 1. Inhibition of Oxidosqualene Cyclase in HepG2 Cells (IC50)
HepG2 cells, obtained from American Type Culture Collection, are seeded into plastic 6-well multiwell dishes and grown to 60-70% confluency in an atmosphere of 5%CO2 at 37° C. using Minimal Essential Media supplemented with 10% fetal bovine serum as culture media. The cells are washed and the media is replaced with one containing 10% lipoprotein-deficient serum instead of 10% fetal bovine serum. Twenty-four hours later the test compound is added to the culture media in ethanol to obtain concentrations of between 0 and 100 μM. One hour after the addition of the test compound, 2.0 μC of [^14 C]acetate is added to each well and the cells are allowed to incubate for an additional 2-3 hours. The cells are then harvested and extracted for analysis of ^14 C-labeled cholesterol, squalene monoepoxide and squalene diepoxide. These metabolites are separated and identified by a combination of high performance liquid chromatography and flow-through liquid scintillation spectroscopy. An IC50 for the inhibition of [^14 C]cholesterol biosynthesis is calculated based on the radioactivity in controls and treated cells.

Oxidosqualene cyclase = test: Inhibition of Purified Oxidosqualene Cyclase (I10); assay type: biochemical; settings: purified oxidosqualene cyclase from rat liver microsomes, 10 μM [3H]squalene monoepoxide, pH 7.4, 37° C., 40 minutes
Procedure: Oxidosqualene cyclase is purified from rat liver microsomes by the sequential methods of: 1) solubilization with the detergent lauryl maltoside and 2) FPLC anion-exchange chromatography. Compounds are tested to determine their ability to inhibit the conversion of squalene monoepoxide to lanosterol catalyzed by the purified oxidosqualene cyclase. The reaction mixture (final volume, 200 μl) contains potassium phosphate buffer (50 mM, pH 7.4), Na2 EDTA (500 μM), Tween 80 (0.1%), [^3 H]squalene monoepoxide (10 μM of the racemic mixture, 50 μCi/μmol), test compound (10 μM) and purified oxidosqualene cyclase (50μg). The reagents, prior to mixing are equilibrated at 37° C. for 10 minutes. The reaction is initiated by adding enzyme. The mixture is incubated for 40 minutes with shaking in a water bath. The reaction is terminated by the addition of 5 ml of CHCl3 /MeOH (2:1, v/v), 0.8 ml of water and 10 μg each of squalene monoepoxide, squalene diepoxide, lanosterol and cholesterol. The organic layer is isolated and evaporated to dryness under nitrogen. […] Radioactivity is quantitated using an in-line scintillation counter.

Row | Compound | IC50 [1] [µM] | I10 purified enzyme (percent inhibition of oxidosqualene cyclase activity at 10 μM test compound) (Oxidosqualene cyclase) [%]
1 | CC(C)CCSCCCCC(=O)N1CC[C@H]2[C@H](C)[C@@H](O)CC[C@]2(C)C1 (relative stereo) [Example 100905, N-[1-Oxo-5-(3-methylbutylmercapto)pentyl]-8-aza-4α,10-dimethyl-trans-decal-3β-ol] | 52 | 100
2 | CCCCCCCCCCCC(=O)N1CC[C@H]2[C@H](C)[C@@H](O)CC[C@]2(C)C1 (relative stereo) [Example 102417, N-(1-Oxododecyl)-8-aza-4α,10-dimethyl-trans-decal-3β-ol] | 0.7 | 
